Test results reported in patent US20190127456A1, “METHODS OF TREATING IDIOPATHIC PULMONARY FIBROSIS” (FibroGen, Inc., priority 2017, published 2019).
Like-named read-outs stand apart in the source and are kept apart here.

Columns and labels:
[1] = tested on: radiation-induced lung fibrosis; test: Mouse radiation-induced lung fibrosis model: lung volume by HRCT; format: in vivo; details: 14.5 Gy irradiated mice, treated 8 weeks from week 16, measured at 24 weeks; FIG. 4
Protocol: The objective of this study was to compare the activity of pamrevlumab monotherapy to either pirfenidone or nintedanib alone, and to evaluate the potential for enhanced activity of the combined agents. […] In this study, mice received thoracic irradiation (RT), followed by the therapeutic administration of the agents at 16 weeks post-irradiation when lung remodeling was evident by HRCT. After 8 weeks of drug treatment, lung density and volume were assessed by HRCT, lung function was assessed by blood gas analysis, and mice were sacrificed for histologic and gene expression analysis. C57B1/6 mice were irradiated with 14.5 Gy photons; full thorax, single dose. Treatment with therapeutic agent(s) (pamrevlumab, pirfenidone, and/or nintedanib) was initiated 16 weeks post-irradiation and continued for 8 weeks. Pamrevlumab (FG) was given IP, BIW, at 40 mg/kg; pirfenidone (PF) was given PO in chow, QD, at 300 mg/kg; nintedanib (ND) was given PO in chow, QD, at 100 mg/kg. Treatment with each agent alone, with combinations of two, and with a triple combination were carried out. Controls included non-irradiated mice, mice that were irradiated and not treated, and mice that were irradiated and given human IgG. Endpoint measurements were taken at 24 weeks for HRCT (lung structure), blood gas analysis (lung function), histology and gene expression analysis. […]

[2] = tested on: radiation-induced lung fibrosis; test: Mouse radiation-induced lung fibrosis model: lung function by blood gas analysis; format: in vivo; details: blood gas analysis at 24 weeks, compared to RT with no treatment; data not shown
Protocol: The objective of this study was to compare the activity of pamrevlumab monotherapy to either pirfenidone or nintedanib alone, and to evaluate the potential for enhanced activity of the combined agents. […] In this study, mice received thoracic irradiation (RT), followed by the therapeutic administration of the agents at 16 weeks post-irradiation when lung remodeling was evident by HRCT. After 8 weeks of drug treatment, lung density and volume were assessed by HRCT, lung function was assessed by blood gas analysis, and mice were sacrificed for histologic and gene expression analysis. C57B1/6 mice were irradiated with 14.5 Gy photons; full thorax, single dose. Treatment with therapeutic agent(s) (pamrevlumab, pirfenidone, and/or nintedanib) was initiated 16 weeks post-irradiation and continued for 8 weeks. Pamrevlumab (FG) was given IP, BIW, at 40 mg/kg; pirfenidone (PF) was given PO in chow, QD, at 300 mg/kg; nintedanib (ND) was given PO in chow, QD, at 100 mg/kg. Treatment with each agent alone, with combinations of two, and with a triple combination were carried out. Controls included non-irradiated mice, mice that were irradiated and not treated, and mice that were irradiated and given human IgG. […] The effect of the treatments on lung function was assessed by blood gas analysis (data not shown).

[3] = tested on: fibrosis genes in irradiated lung; test: Microarray analysis of mRNA transcripts in irradiated lung; format: in vivo, mouse; details: for % Normalization of gene expression, Igfbp5 / % Normalization of gene expression, Abca3 / % Normalization of gene expression, Gdf2 / % Normalization of gene expression, Cx3cl1 / % Normalization of gene expression, Retnla / % Normalization of gene expression, Nt5e / % Normalization of gene expression, Plat / % Normalization of gene expression, Ccr2 / % Normalization of gene expression, Igfbp7 / % Normalization of gene expression, Cdkn2a / % Normalization of gene expression, Apln / % Normalization of gene expression, Wisp1: irradiated mouse lung, 24 weeks after RT, 8 weeks treatment; for % Normalization of gene expression, Igfbp5: RT fold change 0.3; for % Normalization of gene expression, Abca3 / % Normalization of gene expression, Gdf2: RT fold change 0.4; for % Normalization of gene expression, Cx3cl1: RT fold change 0.5; for % Normalization of gene expression, Retnla: RT fold change 2.0; for % Normalization of gene expression, Nt5e: RT fold change 2.1; for % Normalization of gene expression, Plat: RT fold change 2.2; for % Normalization of gene expression, Ccr2: RT fold change 2.4; for % Normalization of gene expression, Igfbp7: RT fold change 2.6; for % Normalization of gene expression, Cdkn2a: RT fold change 2.7; for % Normalization of gene expression, Apln: RT fold change 5.3; for expression of the Wisp 1 and Nt5e genes: monotherapy compared to RT treatment alone
Protocol: C57B1/6 mice were irradiated with 14.5 Gy photons; full thorax, single dose. Treatment with therapeutic agent(s) (pamrevlumab, pirfenidone, and/or nintedanib) was initiated 16 weeks post-irradiation and continued for 8 weeks. Pamrevlumab (FG) was given IP, BIW, at 40 mg/kg; pirfenidone (PF) was given PO in chow, QD, at 300 mg/kg; nintedanib (ND) was given PO in chow, QD, at 100 mg/kg. Treatment with each agent alone, with combinations of two, and with a triple combination were carried out. Controls included non-irradiated mice, mice that were irradiated and not treated, and mice that were irradiated and given human IgG. Endpoint measurements were taken at 24 weeks for HRCT (lung structure), blood gas analysis (lung function), histology and gene expression analysis.
Microarray analysis of mRNA transcripts of numerous genes at 24 weeks after RT were carried out by standard techniques to compare the expression profiles of irradiated and treated animals to irradiated animals that were not further treated. The results of the later group, RT (control), were used to normalize the expression data from the other groups. Briefly, RNA from 4-7 animals per condition (RT (control), RT+hIgG, RT+FG, RT+ND, RT+PF, RT+FG+ND, RT+FG+PF, RT+ND+PF, RT+FG+ND+PF). Affymetrix 430 2.0 data was used. RT induced changes (≥1.5×, p<0.05) were filtered for treatment dependent correction (>50% correction, p<0.05). 80 RT-induced and 68 RT-suppressed transcripts were normalized at least 50% by one or more treatments. The resulting list was dominated by pamrevlumab-dependent normalization. Functional analysis indicated pamrevlumab treatment preferentially normalized RT genes known to be regulated by TGFβ and TNF.

[4] = cited from earlier work
[5] = IPF patients; cited from earlier work
[6] = combined clinical studies of pirfenidone, cited from earlier work
IPF = details: Week 52, Phase 3 clinical study; cited from earlier work

COC(=O)c1ccc2c(c1)NC(=O)/C2=C(\Nc1ccc(N(C)C(=O)CN2CCN(C)CC2)cc1)c1ccccc1 [nintedanib]
radiation-induced lung volume decrease [1]: not statistically different | O2 saturation [2]: normalized O2 saturation | % Normalization of gene expression, Igfbp5 [3]: 54% | % Normalization of gene expression, Abca3 [3]: −35% | % Normalization of gene expression, Gdf2 [3]: 33% | % Normalization of gene expression, Cx3cl1 [3]: −21% | % Normalization of gene expression, Retnla [3]: −9% | % Normalization of gene expression, Nt5e [3]: −22% | % Normalization of gene expression, Plat [3]: −55% | % Normalization of gene expression, Ccr2 [3]: 10% | % Normalization of gene expression, Igfbp7 [3]: 10% | % Normalization of gene expression, Cdkn2a [3]: 9% | % Normalization of gene expression, Apln [3]: 6% | % Normalization of gene expression, Wisp1 ([3]; RT fold change 6.9): −7% | % Normalization of gene expression, Wisp1 ([3]; RT fold change 11.9): −18% | expression of the Wisp 1 and Nt5e genes [3]: further induction of expression | patients with arterial thromboembolic events ([4]; a clinical trial of nintedanib): 2.5% | patients experiencing abdominal pain ([4]; clinical trials of nintedanib): 15% | patients experiencing vomiting ([4]; clinical trials of nintedanib): 12% | patients experiencing nausea ([4]; clinical trials of nintedanib, placebo 7%): 24% | patients experiencing diarrhea ([4]; clinical trials of nintedanib, placebo 18%): 62% | plasma half-life [5]: 9.5 h

Cc1ccc(=O)n(-c2ccccc2)c1 [pirfenidone, 5-methyl-1-phenyl-2-(1H)-pyridone]
% Normalization of gene expression, Igfbp5 [3]: 27% | % Normalization of gene expression, Abca3 [3]: −20% | % Normalization of gene expression, Gdf2 [3]: 10% | % Normalization of gene expression, Cx3cl1 [3]: −8% | % Normalization of gene expression, Retnla [3]: −7% | % Normalization of gene expression, Nt5e [3]: −58% | % Normalization of gene expression, Plat [3]: 0% | % Normalization of gene expression, Ccr2 [3]: −20% | % Normalization of gene expression, Igfbp7 [3]: −6% | % Normalization of gene expression, Cdkn2a [3]: −37% | % Normalization of gene expression, Apln [3]: 41% | % Normalization of gene expression, Wisp1 ([3]; RT fold change 6.9): −21% | % Normalization of gene expression, Wisp1 ([3]; RT fold change 11.9): −78% | expression of the Wisp 1 and Nt5e genes [3]: further induction of expression | patients experiencing abdominal pain [6]: 24% | patients experiencing vomiting [6]: 13% | patients with skin rash [6]: 30% | patients experiencing nausea ([6]; placebo 16%): 36% | patients experiencing diarrhea ([6]; placebo 20%): 26% | mean UCSD-SOBQ score over placebo treated patients (IPF): no statistical significance
